PMC5930436, “Overexpressed HDAC8 in cervical cancer cells shows functional redundancy of tubulin deacetylation with HDAC6” (Cell Communication and Signaling : CCS, 2018)
Entries after “also recorded” stand apart in the source; their conditions may differ.

Columns and labels:
[1] = test system: acetylated alpha tubulin, HeLa; assay: Immunoblot of acetylated alpha tubulin in HeLa cells; type: cell-based, human; conditions: 24 h
Protocol: (§1) Human embryonic kidney cells, HEK293T, human cervical carcinoma cells, HeLa, human breast cancer cells, MDA-MB 231, human lung adenocarcinoma cellsA549, chronic myeloid leukemia cells, K562, and human colon cancer cells, HCT11, were obtained from National Centre for Cell Sciences (NCCS), Pune, India. Cell line authentication by STR analysis was performed for 10 genetic loci for all the cell lines by Life code, Genomic technologies Pvt. Ltd., and tested for mycoplasma negative by performing PCR (mycoplasma specific genes) using EZdetect PCR kit for mycoplasma detection (CCK009). All the cells were cultured in high glucose DMEM medium containing 10% foetal bovine serum and 1% Penicillin/streptomycin (Himedia). Cells were seeded in 60 mm dishes and upon attaining 80–90% confluency, treatment was given with PCI-34051(Cayman Chemicals) (10 μM/20 μM) and tubastatin (5 μM) for 24 h or both in combination (PCI-34051 and Tubastatin) and Forskolin (Sigma) (10 μM) for 45 min independently along with untreated control as described earlier.
(§2) Total, cytoplasmic and nuclear fractions of HeLa or HEK 293 T cells treated with or without PCI-34051 (20 μM), [12] tubastatin (5 μM) and/or forskolin (10 μM) were prepared as described previously. Total protein samples of HEK 293 T, HeLa, MDAMB 231, K562, A549 and HCT11 cells / immunoprecipitated HDAC8 and HDAC6 samples from both HeLa and HEK 293 T lysates / HDAC8 siRNA transfected HEK 293 T and HeLa lysates were also prepared. The proteins were separated on 10 or 12% SDS-PAGE, transferred on to nitrocellulose membrane and probed with primary antibodies of HDAC8, Beta actin, Alpha tubulin, anti-acetylated alpha tubulin, HDAC6 and GAPDH. The bands were visualized using chemiluminiscence after probing with HRP-conjugated secondary antibody.
(§3) Source for siRNA oligonucleotides were considered from with sequence, HDAC8 Sense: […] and Anti-sense: […]. The oligonucleotides were converted into siRNA by following standard protocol as described earlier. HeLa and HEK 293 T cells were transfected with HDAC8 siRNA (10–15 μg/100 mm dish) using lipofectamine 2000 (Invitrogen), and considering untransfected as control. Cells were harvested after 72 h of post-transfection and processed for total RNA and protein isolation.

[2] = test system: acetylated alpha tubulin, HEK 293 T; assay: Immunoblot of acetylated alpha tubulin in HEK 293 T cells; type: cell-based, human; conditions: 24 h; for acetylated alpha tubulin levels: HEK 293 T
Protocol: as §1, §2, §3

HeLa cells [3] = assay: Cell migration (wound) assay in HeLa cells; type: cell-based, human
Protocol: HeLa cells are grown in 6 well plates in duplicates till it attains 90% confluency and starved with serum free media for overnight. Using a sterile 200 μl tip wound is created by drawing straight lines at three different points in each well. Detached cells are aspirated and washed three times with 1XPBS. Cells are treated with PCI-34051 (10 μM & 20 μM) and Paclitaxel (10 μM & 20 μM) dissolved in 2% FBS respectively along with control (untreated). Migrated cells into the wound were examined by capturing images using Olympus CKX41, ProgRes CT3 phase contrast microscope after 24 and 48 h.

HeLa cells [4] = assay: Cell morphology analysis, HeLa; type: cell-based, human; conditions: 20 μM
Protocol: (§4) HeLa and HEK 293 T cells are cultured in 6 well plates till attaining 70% confluency. Cells are starved for 12 h without serum and treated with PCI-34051 (20 μM) and Paclitaxel (20 μM) along with untreated control for 24 & 48 h. Examined difference in the morphology was captured by Olympus CKX41, ProgRes CT3 phase contrast microscope at 10X focussed lens.

HEK 293 T cells [5] = assay: Cell morphology analysis, HEK 293 T; type: cell-based, human; conditions: 20 μM, 24 & 48 h, vs control
Protocol: as §4

HeLa cells [6] = assay: Cell cycle analysis, HeLa; type: cell-based, human; conditions: PCI-34051 (20 μM), 48 h, vs untreated control
Protocol: (§5) Cells (HeLa & HEK 293 T) were grown to attain 70% confluency and were serum starved for 12 h, followed by treatments with PCI-34051 (20 μM) and Paclitaxel (20 μM) respectively for 48 h and processed for cell cycle analysis.

HEK 293 T cells [7] = assay: Cell cycle analysis, HEK 293 T; type: cell-based, human; conditions: PCI-34051 (20 μM), 48 h
Protocol: as §5

HDAC8 = conditions: cited from earlier work
Text: The cytoplasmic localization of HDAC8 was further confirmed by immunoblot analysis using total, cytoplasmic and nuclear protein fractions of HEK 293 T and HeLa (Fig. 1d). […] With forskolin treatment, there was significant inc ... || In silico and spectroscopy based results have confirmed the interaction of HDAC8 with alpha tubulin & acetylated alpha tubulin peptide. To further validate the functional interaction we carried out IP and co-IP experiments with HDAC8 and acetylated alpha tubulin (ac-tubulin) antibodies. […] Densitometry results for the fold expression ...

GST-HDAC8 [8] = assay: Circular dichroism binding study with GST-HDAC8; set-up: species or system human; conditions: GST-HDAC8 (2 μM) + peptide (500 nM), 25 °C, 190-300 nm
Protocol: (§6) hHDAC8 (Full length) cDNA was amplified by using a polymerase chain reaction (PCR) with forward primer: 5′– […]-3′ and a reverse primer: 5’–[…]–3′. The PCR product was then sub cloned into pGEX- 6P1 plasmid. Clone was then overexpressed in Escherichia coli strain BL21 (DE3) with standardized expression conditions of 0.1 mM IPTG at 28 °C for 4 h. Induced culture pellet was lysed in 1XPBS buffer (140 mM NaCl, 2.7 mM KCl, 10 mM Na2HPO4, 1.8 mM KH2PO4) along with 1X Protease inhibitor cocktail, 1 mM PMSF, and 0.1 mM DTT. To the lysate 1% Triton X 100 is added and centrifuged for 20 min at a speed of 4000 rpm at 4 °C. Clear supernatant was used for binding with GST binding buffer (25 mM Tris pH 7.5, 300 mM NaCl, 1 mM EDTA, 1X Protease inhibitor cocktail) for 3 h on a rota spin at 4 °C. Binding was followed by collection of unbound and washes with 1X PBS (5 washes). Elutions were collected in 10 mM reduced glutathione, dissolved in 50 mM Tris pH 8.0. The purity of the protein was then analysed on SDS PAGE, followed by Western blot. Activity was then determined by HDAC activity assay.
Binding studies of GST-HDAC8 protein (2 μM) and acetylated (Lys40) or unacetylated alpha tubulin peptides (500 nM) were carried out on Jasco J-1500 (model L-1500-450) CD spectroscopy. Changes incurred in the secondary structure of GST-HDAC8 upon binding of the peptides were recorded as the mean ellipticity, with given set of parameters: start wavelength of 300 nm, end wavelength of 190 nm, scan speed of 100 nm/min, band width of 2 nm, cuvette cell size of 2 mm and at a temperature of 25 °C with two scan accumulations.

GST-HDAC8 [9] = assay: HPLC-based in vitro deacetylation assay with GST-HDAC8; type: biochemical, human; conditions: GST-HDAC8 (2 μM; 30 μg) + peptide (500 nM), 15 min, 37 °C, 50 mM Tris pH 7.5, 1 mM DTT, HPLC C18
Protocol: as §6
In vitro deacetylation assay of custom synthesized acetylated (Lys40) alpha tubulin was carried out on HPLC (Schimadzu) with C18 (4.6 × 250 mm) column as described earlier. […]

COc1ccc(Cn2ccc3ccc(C(=O)NO)cc32)cc1 [PCI-34051]
acetylated alpha tubulin levels, compared to tubastatin treated condition ([1]; PCI-34051 (20 μM) vs tubastatin): Increased ac-alpha tubulin levels | acetylated alpha tubulin levels ([1]; PCI-34051 (20 μM)): ac-alpha tubulin levels increase; also recorded: increased acetylated alpha tubulin levels; also recorded: increased the acetylation of alpha tubulin in HeLa | acetylated alpha tubulin levels ([2]; PCI-34051 (20 μM)): no significant increase | migration efficiency (HeLa cells [3]; PCI-34051 (10 μM & 20 μM), upto 48 h): significantly decreased | migration efficiency (rank order) (HeLa cells [3]; PCI-34051 (10 μM) or Paclitaxel (10 μM), 24 and 48 h): Control> > Paclitaxel>PCI-34051 | cell size during migration assay (HeLa cells [3]; PCI-34051, upto 48 h): notable decrease in cell size | cell morphology effect compared with positive control (HeLa cells [4]; HeLa (shrinkage) and HEK 293 T (clump formation)): quite comparable to that of paclitaxel treated condition | cell morphology (cell size) (HeLa cells [4]; HeLa, 24 & 48 h, vs control): reduced (shrinking) cell size; also recorded: decreased cell size (shrinking) | cell morphology (aggregation / clump formation) (HEK 293 T cells [5]): clump formation; also recorded: cell aggregation | mitotic phase of cell cycle (HeLa cells [6]): significant (p < 0.05) reduction in mitotic phase | sub G0/G1 peak (HeLa cells [6]): increased sub G0/G1 peak | mitotic phase of cell cycle (HEK 293 T cells [7]): did not show any mitotic phase reduction; also recorded: no major significant change in the mitotic phase | sub G0/G1 phase (HEK 293 T cells [7]): significant increase in the sub G0/G1 phase | HDAC8 selectivity (HDAC8): HDAC8 selective inhibitor

CN1CCc2c(c3ccccc3n2Cc2ccc(C(=O)NO)cc2)C1 [Tubastatin]
acetylated alpha tubulin levels, compared to PCI-34051 (20 μM) treated condition ([2]; HEK 293T, tubastatin (5 μM) vs PCI-34051 (20 μM)): increases ac-alpha tubulin levels | acetylated alpha tubulin levels ([2]; tubastatin (5 μM), HDAC6 inhibition): increase in ac-alpha tubulin levels

DGQMPSDKTIGGGD [Unac-alpha tubulin peptide, Custom synthesized, Unacetylated Alpha tubulin peptide …]
change in secondary structure of GST-HDAC8 (CD) (GST-HDAC8 [8]; listed as unacetylated form): without any notable differences | change in secondary structure of GST-HDAC8 (CD) (GST-HDAC8 [8]; listed as unacetylated tubulin): not observed

DGQMPSDKTIGGGD [ac-alpha tubulin peptide, Custom synthesized peptides of alpha tubulin 33–46 amino acids, Acetylated alpha tubulin peptide, at Lys40 …]
change in secondary structure of GST-HDAC8 (CD) (GST-HDAC8 [8]): significant change in the secondary structure of GST-HDAC8 | change in secondary structure of GST-HDAC8 (CD) (GST-HDAC8 [8]; listed as acetylated alpha tubulin): change in the secondary structure of GST-HDAC8; also recorded: significant change in the secondary structure | in vitro deacetylation by GST-HDAC8 (shift to retention time of unacetylated peptide) (GST-HDAC8 [9]): clearly demonstrates the in vitro deacetylation of ac-alpha tubulin by GST-HDAC8 | in vitro deacetylation by GST-HDAC8 (shift to retention time of unacetylated peptide) (GST-HDAC8 [9]; listed as acetylated alpha tubulin (Lys40) peptide): significant peak shift in the retention time corresponding to unacetylated peptide
